In general, Ki refers to a dissociation constant, usually derived from enzyme kinetics or from competition with a known ligand. Low values mean a stronger hold on the target, high ones a looser hold on the target. The pKi is the Ki on a negative log10 scale, so that one unit is a factor of ten. Higher therefore signals a low Ki.

The target of one experiment is Trypsin (Homo sapiens, UniProt P07477+P07478+P35030). The experiment can be described thus: Inhibition of trypsin in human plasma. The experiment is classed as cell-free.
For experiment [1], the species on record is Homo sapiens. The experiment can be described thus: Concentration required to double the human activated partial thromboplastin time in human plasma. Format: functional.
The next experiment deals with Prothrombin (Homo sapiens, UniProt P00734). The experiment in a line: Inhibition of thrombin in human plasma. Format: cell-free.
The species named for experiment [2] is Homo sapiens. The experiment in a line: Protein binding affinity in human plasma, expressed as percent unbound (free). The experiment is classed as functional.

pKi: −log10 of the molar value.

`CCNC(=O)COc1ccc(Cl)cc1CNC(=O)Cn1c(C)ccc(NS(=O)(=O)Cc2ccccc2)c1=O` showed an inhibition constant (Ki) at Trypsin of 2000 nM. Also, the Concentration in the experiment listed under Homo sapiens [1] worked out at 0.79 µM. In addition, the pKi on Prothrombin was 10.40.

As to `N[C@@H](C(=O)N1CCC[C@H]1C(=O)NCc1cc(Cl)ccc1Cl)C1CCCCC1`, the Unbound in the experiment filed under Homo sapiens [2] was determined as 4%. The same molecule gave a Ki on Trypsin of 29000 nM. In addition, in the experiment filed under Homo sapiens [1], the Concentration was 0.95 µM.

On Trypsin, `Cc1cc(C(F)(F)F)c(N)c(=O)n1CC(=O)NCc1cc(Cl)ccc1OCC(=O)N(C)C` returned a Ki of more than 100000 nM.

Turning to `CNC(=O)COc1ccc(Cl)cc1CNC(=O)Cn1c(C)cc(C(F)(F)F)c(N)c1=O`, the Ki at Trypsin amounted to 7100 nM. This molecule showed a Concentration in the experiment listed under Homo sapiens [1] of 2.5 µM. The pKi on Prothrombin is 7.82.

The molecule `CCNC(=O)COc1ccc(Cl)cc1CNC(=O)Cn1c(C)cnc(NCCc2ccccc2)c1=O` returned an Unbound in the experiment filed under Homo sapiens [2] of 1%. The molecule further registered a Ki on Trypsin of 1000 nM. Besides, the Concentration in the experiment filed under Homo sapiens [1] was 1.2 µM. Further, the pKi on Prothrombin is 10.15.

The molecule `Cc1nc(N)ccc1CNC(=O)Cn1c(C)cnc(NCCc2ccccc2)c1=O` [L-375378] displayed an Unbound in the experiment filed under Homo sapiens [2] of 6%. Further, the Ki at Trypsin came out at 1800 nM. This molecule yielded a Concentration in the experiment filed under Homo sapiens [1] of 0.41 µM.

For `Cc1nc(N)ccc1CNC(=O)Cn1c(C)cc(C(F)(F)F)c(N)c1=O`, the Ki at Trypsin was determined as 20000 nM. This molecule gave a pKi on Prothrombin of 6.47.

`Cc1nc(N)ccc1CNC(=O)Cn1c(C)cnc(N)c1=O`: the Ki on Trypsin was 23000 nM. The molecule also gave a pKi on Prothrombin of 6.05.

For the molecule `CCNC(=O)COc1ccc(Cl)cc1CNC(=O)Cn1c(C)cc(C(F)(F)F)c(N)c1=O`, the Ki at Trypsin was 10000 nM. The Concentration in the experiment filed under Homo sapiens [1] is 2.1 µM. On Prothrombin, this molecule gave a pKi of 8.07.

Take `CCNC(=O)COc1ccc(Cl)cc1CNC(=O)Cn1c(C)cnc(N)c1=O`: in the experiment listed under Homo sapiens [2], the Unbound was 20%. The molecule also yielded a Ki at Trypsin of 7200 nM. Moreover, the Concentration in the experiment listed under Homo sapiens [1] stood at 1.6 µM. The molecule also had a pKi on Prothrombin of 7.92.

The molecule `Cc1cc(C(F)(F)F)c(N)c(=O)n1CC(=O)NCc1cc(Cl)ccc1OCC(=O)NCCN(C)C` came in with a Ki at Trypsin of 14000 nM. In the experiment filed under Homo sapiens [1], the Concentration turned out to be 1.3 µM. Also, the pKi at Prothrombin is 7.74.

`Cc1ccc(NS(=O)(=O)Cc2ccccc2)c(=O)n1CC(=O)NCc1cccc(Cl)c1` displayed a Ki at Trypsin of 20000 nM. In the experiment filed under Homo sapiens [1], this molecule came in with a Concentration of 2.8 µM. Further, the negative logarithm of the Ki (pKi) at Prothrombin was 8.15.

Take `Cc1cc(C(F)(F)F)c(N)c(=O)n1CC(=O)NCc1cc(Cl)ccc1OCC(=O)NCCCN(C)C`: the Unbound in the experiment listed under Homo sapiens [2] amounted to 18%. Moreover, the Ki on Trypsin turned out to be 11000 nM. In the experiment filed under Homo sapiens [1], this molecule showed a Concentration of 0.7 µM. The molecule also showed a negative-log Ki (pKi) at Prothrombin of 8.13.

At Trypsin, `Cc1ccc(NS(=O)(=O)Cc2ccccc2)c(=O)n1CC(=O)NCc1cc(Cl)ccc1Cl` yielded an inhibition constant (Ki) of 100000 nM. Moreover, the Concentration in the experiment filed under Homo sapiens [1] was found to be 2.7 µM. In addition, the negative logarithm of the Ki (pKi) on Prothrombin is 7.62.

As to `CCNC(=O)COc1ccc(Cl)cc1CNC(=O)[C@@H]1CCCN1C(=O)[C@H](N)C1CCCCC1`, the Unbound in the experiment filed under Homo sapiens [2] came to 15%. For the same molecule, the Ki on Trypsin is given as 23000 nM. For the same molecule, the Concentration in the experiment listed under Homo sapiens [1] was found to be 0.41 µM.

Source of the values: ChEMBL document CHEMBL1145868, “Small, low nanomolar, noncovalent thrombin inhibitors lacking a group to fill the 'distal binding pocket'” (Bioorg Med Chem Lett, 2003).
